Data on one compound can be found in US20120077732A1, “CYCLIC PEPTIDES AND USES THEREOF” (SYDNEY WEST AREA HEALTH SERVICE, priority 2008, published 2012).

The test system of one data set is 2B4.11 cells. Type of data set: cell-based. The settings on record: 50 μM.
In another data set the test system is 2B4 cells. The data set is described as follows: T-cell activation with PMA and ionomycin, IL-2 production. The conditions noted are these: PMA 40 ng/mL + ionomycin 5 μg/mL; 50 μM; ±SD.
The format of data set [1] is physicochemical. On the procedure:
pH stability was also investigated. C1 (2 μg/μl) was incubated at 30° C. for three days at pH 3, 7 and 10. Samples were taken after each day and analysed by mass spectrometry.

The next data set deals with trypsin. It counts as in vitro ADME. The method, then:
The effect of trypsin on C1 and CP was studied by incubating each peptide (1 μg/μl) in methanol and ammonium bicarbonate (0.1M) with 125 ng/μl of trypsin at pH 8 and 37° C. The effect of trypsin after incubation with CP and C1 was followed by mass spectrometry. […]

The test system of the next data set is allergic mice (OVA/OVA). The data set is described as follows: Allergic airways disease (OVA) model: local and systemic OVA-specific cytokine production. The arrangement: key to Spleen OVA-stimulated IL-5 / Spleen OVA-stimulated IL-13 / LN OVA-stimulated IL-5 / LNOVA stimulated IL-13: nc: no change; ↑: increase; ↓: decrease. Type of data set: in vivo.
Another data set has as its system Wistar rats. The data set is described as follows: Adjuvant-induced arthritis model. It counts as in vivo. The settings on record: given subcutaneously, four daily injections of 6 mg at onset of arthritis.
Setting [2] is: 200 μg s.c. during challenge, allergic mice.
The mark [3] stands for this setting: 200 μg/100 μl s.c. during OVA challenge, compared to OVA/OVA alone.

Protocol for 2B4 cells: Further, T-cells were activated using PMA and ionomycin stimulation. The method employed to activate T cells utilized the protein kinase C activating PMA in combination with the calcium ionophore, ionomycin. In combination, PMA/ionomycin effectively activate T cells downstream from the TCR. Phorbol 12-myristate 13-acetate (PMA) (40 ng/mL) and ionomycin (5 μg/mL) were added to 2B4 cells (5×10^4) and incubated with each CP-conjugate at 50 μM in 0.5% DMSO in 96-well, round bottom microtiter plates for 24 h at 37° C. with 5% CO2 in a total volume of 250 μL. Supernatants were then collected and analysed for IL-2 production. All CP-conjugates were tested simultaneously in triplicate wells, and each experiment was performed on three separate occasions.

As for `CC(C)C[C@@H]1NC(=O)[C@@H](CC(C)C)NC(=O)[C@H](CCCNC(=N)N)NC(=O)[C@@H](CC(C)C)NC(=O)CNC(=O)[C@@H](C(C)C)NC(=O)[C@H](CCCCN)NC(=O)[C@@H](CC(C)C)NC(=O)[C@H](CC(C)C)NC(=O)[C@@H](CC(C)C)NC1=O` [C1, LDRLDLLDLLDKVDG], the IL-2 production with 2B4.11 cells is 71.42%+/−14.275D. For the same compound, in the data set with 2B4 cells, the “IL-2 production relative to the DMSO control” value was 62.83%+/−17.60. Further, the “pH range over which stable” value in data set [1] is 1-11 pH. Also, in the data set with trypsin, the “stability without trypsin, 3 hours (Mass spectroscopy-MS)” value is given as “No degradation product” and the “stability without trypsin, 24 hours (MS)” value is “No degradation product”. Moreover, in the data set on allergic mice (OVA/OVA) (setting [2]), the “locally produced (peribronchial lymph node derived) IL-5” value is “significant decrease”, the “locally produced (peribronchial lymph node derived) IL-13” value is given as “significant decrease”, the “systemic (spleen derived) IL-5” value was “significant decrease” and the “systemic (spleen derived) IL-13” value is listed as “significant decrease”. In the data set on allergic mice (OVA/OVA) (setting [3]), the “LN OVA-stimulated IL-5” value is “↓”, the “LNOVA stimulated IL-13” value is on record as “↓”, the “Spleen OVA-stimulated IL-5” value is on record as “↓” and the “Spleen OVA-stimulated IL-13” value is “↓”. In the data set with Wistar rats, the “effect in reducing inflammation (total foot swelling)” value is recorded as “comparable effect to cyclosporin”.
